Where two headings read alike, the source gives them in different places.
Legend:
Experiment in all cases: MIC of imipenem, ertapenem and meropenem
K. pneumoniae = format: cell-based, Klebsiella pneumoniae; details: Klebsiella pneumoniae, read-out: MIC
P. mirabilis = format: cell-based
P. stuartii = format: cell-based, Providencia stuartii
S. typhimurium = format: cell-based
E. aerogenes = format: cell-based, Enterobacter aerogenes; details: Klebsiella aerogenes, read-out: MIC
P. rettgeri = format: cell-based, Providencia rettgeri

With `C[C@@H](O)[C@H]1C(=O)N2C(C(=O)O)=C(S[C@@H]3CN[C@H](C(=O)Nc4cccc(C(=O)O)c4)C3)[C@H](C)[C@H]12` [ETP, ertapenem] the MIC (K. pneumoniae; K. pneumoniae MEK (CTX-M-15 + SHV-11)) was > 32 µg/mL, the MIC (K. pneumoniae; K. pneumoniae MEK, CTX-M-15 + SHV-11, non-carbapenemase producer, porin deficiency) was > 32 µg/mL and the MIC (K. pneumoniae; K. pneumoniae MUS (KPC-2 + TEM-1 + SHV-11 + SHV-12)) was 4 µg/mL. The MIC (K. pneumoniae; K. pneumoniae MUS, KPC-2 + TEM-1 + SHV-11 + SHV-12) was 4 µg/mL, the MIC (K. pneumoniae; K. pneumoniae OM2 (NDM-1 + TEM-1 + CTX-M-3 + SHV-11 + OXA-1)) was 8 µg/mL and the MIC (K. pneumoniae; K. pneumoniae OM2, NDM-1 + TEM-1 + CTX-M-3 + SHV-11 + OXA-1) was 8 µg/mL. The MIC (K. pneumoniae; K. pneumoniae OM4, NDM-1 + TEM-1 + CTX-M-15 + SHV-12 + OXA-9) was > 32 µg/mL, the MIC (K. pneumoniae; K. pneumoniae OM8, NDM-1 + TEM-1 + CTX-M-15 + SHV-11 + OXA-1) was > 32 µg/mL and the MIC (K. pneumoniae; K. pneumoniae OM11, OXA-48 + TEM-1 + CTX-M-14) was 0.75 µg/mL. It also gave an MIC (K. pneumoniae; K. pneumoniae OM13, NDM-1 + TEM-1 + CTX-M-15 + SHV-28 + OXA-1 + OXA-9) of 4 µg/mL, an MIC (K. pneumoniae; K. pneumoniae OM14, OXA-48 + TEM-1) of 1 µg/mL and an MIC (K. pneumoniae; K. pneumoniae OM15, NDM-1 + CTX-M-15 + SHV-130 + OXA-1) of 12 µg/mL. For the same compound, the MIC (K. pneumoniae; K. pneumoniae OM16, NDM-1 + CTX-M-15 + OXA-1 + OXA-181) was > 32 µg/mL, the MIC (K. pneumoniae; K. pneumoniae OM19, NDM-1 + CTX-M-15 + SHV-12 + OXA-1) was 24 µg/mL and the MIC (K. pneumoniae; K. pneumoniae OMA419 (NDM-1 + OXA-1)) was 6 µg/mL. For the same compound, the MIC (K. pneumoniae; K. pneumoniae OMA419, NDM-1 + OXA-1) was 6 µg/mL, the MIC (K. pneumoniae; K. pneumoniae OMA601, NDM-1 + CTX-M-15 + OXA-1 + OXA-9) was > 32 µg/mL and the MIC (K. pneumoniae; K. pneumoniae OMA (OXA-181 + CTX-M-15 + OXA-1)) was 2 µg/mL. It also gave an MIC (K. pneumoniae; K. pneumoniae OMA, OXA-181 + CTXM-15 + OXA-1) of 2 µg/mL, an MIC (K. pneumoniae; K. pneumoniae RAM (OXA-48)) of 4 µg/mL and an MIC (K. pneumoniae; K. pneumoniae RAM, OXA-48) of 4 µg/mL. The MIC (K. pneumoniae; K. pneumoniae ROB (OXA-48 + CTX-M-15 + TEM-1)) was 3 µg/mL, the MIC (K. pneumoniae; K. pneumoniae ROU (OXA-48 + CTX-M-15)) was 1.5 µg/mL and the MIC (K. pneumoniae; K. pneumoniae ROU, OXA-48 + CTX-M-15) was 1.5 µg/mL. The MIC (K. pneumoniae; K. pneumoniae SCO (OXA-48)) was 0.75 µg/mL, the MIC (K. pneumoniae; K. pneumoniae SCO, OXA-48) was 0.75 µg/mL and the MIC (K. pneumoniae; K. pneumoniae SHI (CTX-M-15 + TEM-1 + SHV-1)) was 1 µg/mL. The MIC (K. pneumoniae; K. pneumoniae SHI, CTX-M-15 + TEM-1 + SHV-11, non-carbapenemase producer, porin deficiency) was 1 µg/mL, the MIC (K. pneumoniae; K. pneumoniae SHM (CTX-M-15 + TEM-1 + SHV-11)) was > 32 µg/mL and the MIC (K. pneumoniae; K. pneumoniae SHM, CTX-M-15 + TEM-1 + SHV-11, non-carbapenemase producer, porin deficiency) was > 32 µg/mL. For the same compound, the MIC (K. pneumoniae; K. pneumoniae SIC (OXA-48 + CTX-M-15 + SHV-28)) was 1 µg/mL, the MIC (K. pneumoniae; K. pneumoniae SIC, OXA-48 + CTX-M-15 + SHV-28) was 1 µg/mL and the MIC (K. pneumoniae; K. pneumoniae SIM (CTX-M-15 + TEM-1 + SHV-1)) was > 32 µg/mL. The MIC (K. pneumoniae; K. pneumoniae SIM, CTX-M-15 + TEM-1 + SHV-1, non-carbapenemase producer, porin deficiency) was > 32 µg/mL, the MIC (K. pneumoniae; K. pneumoniae TAW, IMP-8 + SHV-12) was 0.5 µg/mL and the MIC (K. pneumoniae; K. pneumoniae TIK, OXA-48) was 2 µg/mL. For the same compound, the MIC (K. pneumoniae; K. pneumoniae TUR (IMP-1)) was 2 µg/mL, the MIC (K. pneumoniae; K. pneumoniae TUR, IMP-1) was 2 µg/mL and the MIC (K. pneumoniae; K. pneumoniae TWA, IMP-8) was 1 µg/mL. For the same compound, the MIC (K. pneumoniae; K. pneumoniae UK (NDM-1 + CTX-M-15 + CMY-4 + OXA-1)) was > 32 µg/mL, the MIC (K. pneumoniae; K. pneumoniae UK, NDM-1 + CTX-M-15 + CMY-4 + OXA-1) was > 32 µg/mL and the MIC (K. pneumoniae; K. pneumoniae VER, OXA-48 + TEM-1 + CTX-M-15 + SHV-11) was 2 µg/mL. The MIC (K. pneumoniae; K. pneumoniae VSG (OXA-48 + TEM-1 + CTX-M-15 + OXA-1)) was 3 µg/mL, the MIC (K. pneumoniae; K. pneumoniae VSG, OXA-48 + TEM-1 + CTX-M-15 + OXA-1) was 3 µg/mL and the MIC (K. pneumoniae; K. pneumoniae YC, KPC-2 + TEM-1 + SHV-11 + SHV-12 + OXA-9) was 24 µg/mL. The MIC (K. pneumoniae; strain K. pneumoniae 7725, SHV-1, non-carbapenemase producer) was 0.006 µg/mL, the MIC (K. pneumoniae; strain K. pneumoniae 648236, SHV-2a, non-carbapenemase producer) was 2 µg/mL and the MIC (K. pneumoniae; strain K. pneumoniae ALE, CTX-M-15 + SHV-1, non-carbapenemase producer) was > 32 µg/mL. The MIC (K. pneumoniae; strain K. pneumoniae AMS, OXA-48 + TEM-1 + CTX-M-15 + OXA-1) was 2 µg/mL, the MIC (K. pneumoniae; strain K. pneumoniae BAJ, OXA-48 + TEM-1 + CTX-M-15 + SHV-28) was 1.5 µg/mL and the MIC (K. pneumoniae; strain K. pneumoniae BED, CTX-M-15 + TEM-1 + SHV-11, non-carbapenemase producer) was > 32 µg/mL. It also gave an MIC (K. pneumoniae; strain K. pneumoniae BEL, OXA-48) of 4 µg/mL, an MIC (K. pneumoniae; strain K. pneumoniae BEN, OXA-48 + TEM-1 + CTX-M-15 + SHV-28) of 1 µg/mL and an MIC (K. pneumoniae; strain K. pneumoniae BER, SHV-28 + TEM-1, non-carbapenemase producer) of 4 µg/mL. The MIC (K. pneumoniae; strain K. pneumoniae ELK, OXA-48 + TEM-1 + CTX-M-15 + SHV-11) was 3 µg/mL, the MIC (K. pneumoniae; strain K. pneumoniae HOL, OXA-181 + CTX-M-15) was 4 µg/mL and the MIC (K. pneumoniae; strain K. pneumoniae MUS, KPC-2 + TEM-1 + SHV-11 + SHV-12) was 4 µg/mL. It also gave an MIC (K. pneumoniae; strain K. pneumoniae OM2, NDM-1 + TEM-1 + CTX-M-3 + SHV-11 + OXA-1) of 8 µg/mL, an MIC (K. pneumoniae; strain K. pneumoniae OMA419, NDM-1 + OXA-1) of 6 µg/mL and an MIC (K. pneumoniae; strain K. pneumoniae OMA, OXA-181 + CTXM-15 + OXA-1) of 2 µg/mL. The MIC (K. pneumoniae; strain K. pneumoniae ROU, OXA-48 + CTX-M-15) was 1.5 µg/mL, the MIC (K. pneumoniae; strain K. pneumoniae SCO, OXA-48) was 0.75 µg/mL and the MIC (K. pneumoniae; strain K. pneumoniae SIC, OXA-48 + CTX-M-15 + SHV-28) was 1 µg/mL. The MIC (K. pneumoniae; strain K. pneumoniae VSG, OXA-48 + TEM-1 + CTX-M-15 + OXA-1) was 3 µg/mL, the MIC (P. mirabilis; P. mirabilis PMA (ACC-1)) was 0.094 µg/mL and the MIC (P. mirabilis; Proteus mirabilis, P. mirabilis 1031 (CTX-M-14 + TEM-1 + SHV-11), read-out: MIC) was 0.047 µg/mL. It also gave an MIC (P. mirabilis; Proteus mirabilis, P. mirabilis 1031, CTX-M-14 + TEM-1 + SHV-11, non-carbapenemase producer, read-out: MIC) of 0.047 µg/mL, an MIC (P. mirabilis; Proteus mirabilis, P. mirabilis PMA (ACC-1), read-out: MIC) of 0.12 µg/mL and an MIC (P. mirabilis; Proteus mirabilis, P. mirabilis PMA, ACC-1, non-carbapenemase producer, read-out: MIC) of 0.094 µg/mL. For the same compound, the MIC (P. stuartii; P. stuartii PS1 (NDM-1 + CMY-6 + OXA-1)) was 0.38 µg/mL, the MIC (P. stuartii; P. stuartii PS1, NDM-1 + CMY-6 + OXA-1) was 0.38 µg/mL and the MIC (P. stuartii; Providencia stuartii, P. stuartii NDM (NDM-1 + OXA-1 + CMY-6), read-out: MIC) was 0.38 µg/mL. It also gave an MIC (P. stuartii; strain P. stuartii PS1, NDM-1 + CMY-6 + OXA-1) of 0.38 µg/mL, an MIC (S. typhimurium; S. typhimurium 1081 (CTX-M-1)) of 0.19 µg/mL and an MIC (S. typhimurium; Salmonella enterica, S. typhimurium 1081, CTX-M-1, non-carbapenemase producer, read-out: MIC) of 0.19 µg/mL. It also gave an MIC (S. typhimurium; strain S. typhimurium 1081, CTX-M-1, non-carbapenemase producer) of 0.19 µg/mL, an MIC (E. aerogenes; E. aerogenes 1009, TEM-24, non-carbapenemase producer) of 0.12 µg/mL and an MIC (E. aerogenes; E. aerogenes 1085 (TEM-24)) of 0.19 µg/mL. It also gave an MIC (E. aerogenes; E. aerogenes 1085, TEM-24, non-carbapenemase producer) of 0.19 µg/mL, an MIC (E. aerogenes; strain E. aerogenes 1085, TEM-24, non-carbapenemase producer) of 0.19 µg/mL and an MIC (P. rettgeri; P. rettgeri RAP, OXA-181 + OXA-1) of 1 µg/mL. The MIC (P. rettgeri; Providencia rettgeri, P. rettgeri RAP (OXA-181 + OXA-1), read-out: MIC) was 1 µg/mL and the MIC (P. rettgeri; strain P. rettgeri RAP, OXA-181 + OXA-1) was 1 µg/mL.
